Measurements published in PubChem BioAssay (NCI).
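Tested at 5 concentrations; 48 h exposure; 96-well plates; endpoints linearly interpolated, else capped at highest concentration. At the TGI there is no net growth.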

Tested on: MOLT-4 leukemia
Assay: DTP human tumour cell line panel, 48 h

| Compound | TGI [µM] |
| --- | --- |
| O=[N+]([O-])c1ccc(C2=Nn3c(nnc3-c3ccccc3)SC2)o1 | 70.8 |

Tested on: NCI-H226 lung
Assay: DTP human tumour cell line panel, 48 h

| Compound | TGI [µM] |
| --- | --- |
| CC(C)NCCCC(C)Nc1ccnc2ccc3nn(C)nc3c12 (centres undefined) | > 100 |
| O=C(NN1C(=O)C(Cl)C1c1ccc(O)cc1)c1ccccc1O (centres undefined) | 30.7 |
| CCOc1ccc(N=Nc2ccc3oc(=O)c(/C(C)=N/NC(=O)CC(=O)Nc4cccc(OC)c4)cc3c2)cc1 | > 73 |
| O=[N+]([O-])c1ccc(C2=Nn3c(nnc3-c3ccccc3)SC2)o1 | > 100 |

Tested on: NCI-H23 lung
Assay: DTP human tumour cell line panel, 48 h

| Compound | TGI [µM] |
| --- | --- |
| CC(C)NCCCC(C)Nc1ccnc2ccc3nn(C)nc3c12 (centres undefined) | > 100 |
| O=C(NN1C(=O)C(Cl)C1c1ccc(O)cc1)c1ccccc1O (centres undefined) | 41.8 |
| O/N=C1/C(=C/c2ccc(Cl)c(Cl)c2)CCCC1C(NO)c1ccc(Cl)c(Cl)c1 (centres undefined) | 35.6 |
| CCOc1ccc(N=Nc2ccc3oc(=O)c(/C(C)=N/NC(=O)CC(=O)Nc4cccc(OC)c4)cc3c2)cc1 | 33.4 |
| O=[N+]([O-])c1ccc(C2=Nn3c(nnc3-c3ccccc3)SC2)o1 | 42.8 |

Tested on: NCI-H460 lung
Assay: DTP human tumour cell line panel, 48 h

| Compound | TGI [µM] |
| --- | --- |
| CC(C)NCCCC(C)Nc1ccnc2ccc3nn(C)nc3c12 (centres undefined) | > 100 |
| O=C(NN1C(=O)C(Cl)C1c1ccc(O)cc1)c1ccccc1O (centres undefined) | 35.7 |
| O/N=C1/C(=C/c2ccc(Cl)c(Cl)c2)CCCC1C(NO)c1ccc(Cl)c(Cl)c1 (centres undefined) | 40 |
| CCOc1ccc(N=Nc2ccc3oc(=O)c(/C(C)=N/NC(=O)CC(=O)Nc4cccc(OC)c4)cc3c2)cc1 | 46.3 |
| O=[N+]([O-])c1ccc(C2=Nn3c(nnc3-c3ccccc3)SC2)o1 | 41.6 |

Tested on: NCI-H522 lung
Assay: DTP human tumour cell line panel, 48 h

| Compound | TGI [µM] |
| --- | --- |
| CC(C)NCCCC(C)Nc1ccnc2ccc3nn(C)nc3c12 (centres undefined) | > 100 |
| O=C(NN1C(=O)C(Cl)C1c1ccc(O)cc1)c1ccccc1O (centres undefined) | 34.5 |
| O/N=C1/C(=C/c2ccc(Cl)c(Cl)c2)CCCC1C(NO)c1ccc(Cl)c(Cl)c1 (centres undefined) | 25 |
| CCOc1ccc(N=Nc2ccc3oc(=O)c(/C(C)=N/NC(=O)CC(=O)Nc4cccc(OC)c4)cc3c2)cc1 | 72.4 |

Tested on: OVCAR-3 ovarian
Assay: DTP human tumour cell line panel, 48 h

| Compound | TGI [µM] |
| --- | --- |
| O=C(NN1C(=O)C(Cl)C1c1ccc(O)cc1)c1ccccc1O (centres undefined) | 31.7 |
| O/N=C1/C(=C/c2ccc(Cl)c(Cl)c2)CCCC1C(NO)c1ccc(Cl)c(Cl)c1 (centres undefined) | 27.8 |
| CCOc1ccc(N=Nc2ccc3oc(=O)c(/C(C)=N/NC(=O)CC(=O)Nc4cccc(OC)c4)cc3c2)cc1 | 37 |
| O=[N+]([O-])c1ccc(C2=Nn3c(nnc3-c3ccccc3)SC2)o1 | 31.8 |

Tested on: OVCAR-4 ovarian
Assay: DTP human tumour cell line panel, 48 h

| Compound | TGI [µM] |
| --- | --- |
| O=C(NN1C(=O)C(Cl)C1c1ccc(O)cc1)c1ccccc1O (centres undefined) | 40.4 |
| O/N=C1/C(=C/c2ccc(Cl)c(Cl)c2)CCCC1C(NO)c1ccc(Cl)c(Cl)c1 (centres undefined) | 26.7 |
| CCOc1ccc(N=Nc2ccc3oc(=O)c(/C(C)=N/NC(=O)CC(=O)Nc4cccc(OC)c4)cc3c2)cc1 | 52.6 |
| O=[N+]([O-])c1ccc(C2=Nn3c(nnc3-c3ccccc3)SC2)o1 | 41.5 |

Tested on: OVCAR-5 ovarian
Assay: DTP human tumour cell line panel, 48 h

| Compound | TGI [µM] |
| --- | --- |
| CC(C)NCCCC(C)Nc1ccnc2ccc3nn(C)nc3c12 (centres undefined) | > 100 |
| CCOc1ccc(N=Nc2ccc3oc(=O)c(/C(C)=N/NC(=O)CC(=O)Nc4cccc(OC)c4)cc3c2)cc1 | > 70.3 |
| O=[N+]([O-])c1ccc(C2=Nn3c(nnc3-c3ccccc3)SC2)o1 | 65.8 |

Tested on: OVCAR-8 ovarian
Assay: DTP human tumour cell line panel, 48 h

| Compound | TGI [µM] |
| --- | --- |
| CC(C)NCCCC(C)Nc1ccnc2ccc3nn(C)nc3c12 (centres undefined) | > 100 |
| O=C(NN1C(=O)C(Cl)C1c1ccc(O)cc1)c1ccccc1O (centres undefined) | 30.8 |
| O/N=C1/C(=C/c2ccc(Cl)c(Cl)c2)CCCC1C(NO)c1ccc(Cl)c(Cl)c1 (centres undefined) | 36.7 |
| CCOc1ccc(N=Nc2ccc3oc(=O)c(/C(C)=N/NC(=O)CC(=O)Nc4cccc(OC)c4)cc3c2)cc1 | > 61.4 |
| O=[N+]([O-])c1ccc(C2=Nn3c(nnc3-c3ccccc3)SC2)o1 | 45.9 |

Tested on: RPMI-8226 leukemia
Assay: DTP human tumour cell line panel, 48 h

| Compound | TGI [µM] |
| --- | --- |
| CC(C)NCCCC(C)Nc1ccnc2ccc3nn(C)nc3c12 (centres undefined) | > 100 |
| O/N=C1/C(=C/c2ccc(Cl)c(Cl)c2)CCCC1C(NO)c1ccc(Cl)c(Cl)c1 (centres undefined) | 53.6 |
| CCOc1ccc(N=Nc2ccc3oc(=O)c(/C(C)=N/NC(=O)CC(=O)Nc4cccc(OC)c4)cc3c2)cc1 | 53.7 |
| O=[N+]([O-])c1ccc(C2=Nn3c(nnc3-c3ccccc3)SC2)o1 | > 100 |

Tested on: RXF 393 renal
Assay: DTP human tumour cell line panel, 48 h

| Compound | TGI [µM] |
| --- | --- |
| O=C(NN1C(=O)C(Cl)C1c1ccc(O)cc1)c1ccccc1O (centres undefined) | 27 |
| O/N=C1/C(=C/c2ccc(Cl)c(Cl)c2)CCCC1C(NO)c1ccc(Cl)c(Cl)c1 (centres undefined) | 43.3 |
| CCOc1ccc(N=Nc2ccc3oc(=O)c(/C(C)=N/NC(=O)CC(=O)Nc4cccc(OC)c4)cc3c2)cc1 | 38.1 |
| O=[N+]([O-])c1ccc(C2=Nn3c(nnc3-c3ccccc3)SC2)o1 | 53.5 |

Tested on: SF-268 CNS
Assay: DTP human tumour cell line panel, 48 h

| Compound | TGI [µM] |
| --- | --- |
| CC(C)NCCCC(C)Nc1ccnc2ccc3nn(C)nc3c12 (centres undefined) | > 100 |
| O=C(NN1C(=O)C(Cl)C1c1ccc(O)cc1)c1ccccc1O (centres undefined) | 41.2 |
| O/N=C1/C(=C/c2ccc(Cl)c(Cl)c2)CCCC1C(NO)c1ccc(Cl)c(Cl)c1 (centres undefined) | 45.7 |
| CCOc1ccc(N=Nc2ccc3oc(=O)c(/C(C)=N/NC(=O)CC(=O)Nc4cccc(OC)c4)cc3c2)cc1 | 52.5 |
| O=[N+]([O-])c1ccc(C2=Nn3c(nnc3-c3ccccc3)SC2)o1 | 42.8 |

Tested on: SF-295 CNS
Assay: DTP human tumour cell line panel, 48 h

| Compound | TGI [µM] |
| --- | --- |
| CC(C)NCCCC(C)Nc1ccnc2ccc3nn(C)nc3c12 (centres undefined) | > 100 |
| O=C(NN1C(=O)C(Cl)C1c1ccc(O)cc1)c1ccccc1O (centres undefined) | 33.9 |
| CCOc1ccc(N=Nc2ccc3oc(=O)c(/C(C)=N/NC(=O)CC(=O)Nc4cccc(OC)c4)cc3c2)cc1 | 53.8 |
| O=[N+]([O-])c1ccc(C2=Nn3c(nnc3-c3ccccc3)SC2)o1 | 31.8 |

Tested on: SF-539 CNS
Assay: DTP human tumour cell line panel, 48 h

| Compound | TGI [µM] |
| --- | --- |
| CC(C)NCCCC(C)Nc1ccnc2ccc3nn(C)nc3c12 (centres undefined) | > 100 |
| O=C(NN1C(=O)C(Cl)C1c1ccc(O)cc1)c1ccccc1O (centres undefined) | 38.5 |
| O/N=C1/C(=C/c2ccc(Cl)c(Cl)c2)CCCC1C(NO)c1ccc(Cl)c(Cl)c1 (centres undefined) | 33.2 |
| CCOc1ccc(N=Nc2ccc3oc(=O)c(/C(C)=N/NC(=O)CC(=O)Nc4cccc(OC)c4)cc3c2)cc1 | 51 |
| O=[N+]([O-])c1ccc(C2=Nn3c(nnc3-c3ccccc3)SC2)o1 | 39 |

Tested on: SK-MEL-2 melanoma
Assay: DTP human tumour cell line panel, 48 h

| Compound | TGI [µM] |
| --- | --- |
| O=C(NN1C(=O)C(Cl)C1c1ccc(O)cc1)c1ccccc1O (centres undefined) | 48.3 |
| O/N=C1/C(=C/c2ccc(Cl)c(Cl)c2)CCCC1C(NO)c1ccc(Cl)c(Cl)c1 (centres undefined) | 38.5 |
| CCOc1ccc(N=Nc2ccc3oc(=O)c(/C(C)=N/NC(=O)CC(=O)Nc4cccc(OC)c4)cc3c2)cc1 | 45.7 |
| O=[N+]([O-])c1ccc(C2=Nn3c(nnc3-c3ccccc3)SC2)o1 | 49 |

Tested on: SK-MEL-28 melanoma
Assay: DTP human tumour cell line panel, 48 h

| Compound | TGI [µM] |
| --- | --- |
| O=C(NN1C(=O)C(Cl)C1c1ccc(O)cc1)c1ccccc1O (centres undefined) | 36.5 |
| O/N=C1/C(=C/c2ccc(Cl)c(Cl)c2)CCCC1C(NO)c1ccc(Cl)c(Cl)c1 (centres undefined) | 34.5 |
| CCOc1ccc(N=Nc2ccc3oc(=O)c(/C(C)=N/NC(=O)CC(=O)Nc4cccc(OC)c4)cc3c2)cc1 | 92 |
